test system: IgG-Fc (Fc fragment of IgG preparation derived from human plasma); assay: Biacore 3000 surface plasmon resonance analysis of the affinity of the low-molecular-weight compound for IgG-Fc; conditions: IgG-Fc immobilized on sensor chip CM5; compound 25 μM to 100 μM in running buffer pH 7.4, 5% DMSO; 25° C.; 1:1 binding model fit
Procedure: An Fc fragment was prepared by fragmenting an IgG preparation derived from human plasma as a raw material into a Fab fragment and an Fc fragment using papain and separating the Fc fragment only to be purified. Gammagard, which is an IgG preparation derived from human plasma and which was manufactured by Baxter, was dissolved into a buffer solution for papain digestion which contained 0.1 M AcOH—AcONa, 2 mM EDTA and 1 mM cysteine and of which pH was 5.5, and Papain Agarose from papaya latex (papain-immobilized agarose, manufactured by SIGMA) was added to the solution. The mixture was mixed using a rotator and incubated at 37° C. for about 8 hours. The reaction mixture, which contained both of a Fab fragment and an Fc fragment, was separated from the papain-immobilized agarose. The Fc fragment was separated to be purified from the reaction mixture by affinity chromatography using Protein A column (MabSelect, manufactured by GE Healthcare Company). Hereinafter, the Fc fragment is referred to as “IgG-Fc”. Specifically, the reaction mixture, which contained both of a Fab fragment and an Fc fragment, was diluted with a phosphate buffer (20 mM NaH2PO4—Na2HPO4, 150 mM NaCl, pH 7.4) so that the pH became about 7.4. The diluted mixture was added to a Protein A column which was equilibrated using a phosphate buffer, and the column was washed with a phosphate buffer. Then, an IgG-Fc solution was obtained by using an eluent buffer B (100 mM citric acid, pH 3.0) to elute the IgG-Fc. The above-described protein purification by chromatography was carried out using AKTAprime plus system manufactured by GE Healthcare Company.
The analysis of the affinity between the low-molecular-weight compound and IgG-Fc was carried out using Biacore 3000, which was manufactured by GE Healthcare Company and in which surface plasmon resonance was utilized, under the following protocol. All of the sensor chip and reagents used in the following protocol were manufactured by GE Healthcare Company. The low-molecular-weight compounds (2) to (17) of which binding properties were evaluated were obtained from Namiki Shoji Co., Ltd.
The IgG-Fc obtained in the Example 1 was diluted 50-fold with a buffer for immobilization (10 mM CH3COOH—CH3COONa, pH 4.5), and the IgG-Fc was immobilized on a sensor chip CM5 in accordance with the protocol provided with Biacore 3000. The immobilization of the IgG-Fc on the sensor chip CM5 was carried out by amine coupling method using N-hydroxysuccinimide (NHS) and N-ethyl-N′-(3-dimethylaminopropyl)carbodiimide hydrochroride (EDC), and ethanolamine was used for blocking. In addition, a reference cell was prepared as a negative control by activating other flow cell on a chip by EDC/NHS and then immobilizing ethanolamine.
A ligand of any one of the low-molecular-weight compounds (2) to (17) was flowed on the above sensor chip to detect an interaction. Specifically, each of the low-molecular-weight compound (2) to (17) to be measured was diluted with a running buffer (20 mM NaH2PO4—Na2HPO4, 150 mM NaCl, 0.005% P-20, 5% DMSO, pH 7.4) to prepared three or four kinds of diluted solutions of which concentrations were different each other within the range of 25 μM to 100 μM with respect to each compound. The prepared solutions of the each low-molecular-weight compound were added to the sensor chip at a flow rate of 30 μL/min for 120 seconds. Binding reaction curves were orderly observed at the time of addition (binding phase, for 120 seconds) and after the addition (dissociation phase, for 120 second) at the measurement temperature of 25° C. After the each observation, 40 mM NaOH was added for 15 seconds to regenerate the sensor chip. A binding reaction curve of a sample containing DMSO was corrected using a Biacore correction tool manufactured by GE Healthcare Company with respect to the obtained binding curves (see FIGS. 1 to 4). […]

Row | Compound | KA × 10^4 (M^−1), coupling/binding constant KA=Kon/Koff
1 | CC(C)(c1ccc(O)cc1)c1cccc(C(C)(C)c2ccc(O)cc2)c1 [(6)] | 2.9 × 10^4 M^−1
2 | O=c1cc(CSc2ncnc3c2cnn3-c2ccccc2)c2cc(O)c(O)cc2o1 [compound (2)] | 13 × 10^4 M^−1
3 | CN(c1ccc(O)cc1)c1ncc([N+](=O)[O-])c(N(C)c2ccc(O)cc2)n1 [(7)] | 0.96 × 10^4 M^−1
4 | Oc1ccc(-c2csc(COc3ccccc3)n2)cc1O [(10)] | 0.4 × 10^4 M^−1
5 | O=C(CSc1ncnc2c1cnn2-c1ccccc1)c1ccc(O)c(O)c1 [(3)] | 5.1 × 10^4 M^−1
6 | O=C1N/C(=C\c2ccc(O)c(Br)c2)C(=O)N1Cc1ccc(Cl)cc1 [(9)] | 0.48 × 10^4 M^−1
7 | Cc1cc(C(=O)CSc2nc(N)cc(N)n2)c(C)n1Cc1ccc2c(c1)OCO2 [(17)] | 0.05 × 10^4 M^−1
8 | CC(Sc1nnnn1-c1ccc(O)cc1)C(=O)c1ccc(F)c(F)c1 (stereo not shown) [(13)] | 0.17 × 10^4 M^−1
9 | Cc1ccc(C(=O)C(C)Sc2nnnn2-c2ccc(O)cc2)cc1 (stereo not shown) [(15)] | 0.12 × 10^4 M^−1
10 | O=C(CSc1nnc2sc3ccccc3n12)c1ccc(O)c(O)c1 [(4)] | 5.1 × 10^4 M^−1
11 | Nc1cccc(Oc2cccc(Oc3cccc(N)c3)c2)c1 [(8)] | 0.95 × 10^4 M^−1
12 | O=C1Sc2c(S(=O)(=O)Nc3ccc(O)cc3)cc(S(=O)(=O)Nc3ccc(O)cc3)c3cccc1c23 [(11)] | 0.37 × 10^4 M^−1
13 | O=C(CSc1nnc(SCc2cccc3ccccc23)s1)c1ccc(O)c(O)c1 [(5)] | 4.6 × 10^4 M^−1
14 | Nc1ccc(Oc2nc(Oc3ccc(N)cc3)c(F)c(Oc3ccc(N)cc3)c2F)cc1 [(12)] | 0.2 × 10^4 M^−1
15 | Cc1ccc(OCc2nc(CSc3nc(N)cc(N)n3)cs2)cc1 [(16)] | 0.06 × 10^4 M^−1
16 | CN(c1ccc(O)cc1)c1nc(S(=O)(=O)c2ccccc2)c(Cl)s1 [(14)] | 0.16 × 10^4 M^−1

From patent US9273151B2, “Proteinaceous-substance-binding low-molecular-weight compound” (Kaneka Corporation, priority 2011, dated 2016)
